One series has as its system SARS-CoV-1. In words: microbe, parasite or virus in culture. Conditions: Severe acute respiratory syndrome coronavirus, Vero C1008, read-out: SARS-CoV-1 EC50. It counts as cell-based.
In a further series the test system is MERS-CoV. In words: microbe, parasite or virus in culture. It counts as cell-based. Particulars: Middle East respiratory syndrome-related coronavirus, Huh-7, 42 h, read-out: MERS EC50.
In a further series the target is SARS-CoV-2 Mpro (Severe acute respiratory syndrome coronavirus 2, UniProt P0DTD1). The series is described as follows: SARS-CoV-2 main protease (Mpro) FRET assay. It is filed as biochemical. Conditions: highest tested concentration of 100 µM. Here is the method: Compounds were tested in a Förster resonance energy transfer (FRET) assay for inhibition of the SARS-CoV-2 Mpro. The peptide Dabcyl-KTSAVLQ↓SGFRKM-E(Edans)-NH2 (Biosyntan, Berlin, Germany) (↓ indicates the cleavage site), corresponding to the P7–P6′ residues of the nsp4–nsp5 processing site of the viral polyprotein pp1a/pp1ab, was used as the substrate. Quenching of the Edans fluorescence by the Dabcyl residue was eliminated after cleavage of the scissile bond between P1-Gln and P1′-Ser and the difference in fluorescence emission was measured with a Tecan Spark fluorescence plate reader, operated at an excitation wavelength of 360 nm and an emission wavelength of 460 nm.
Candidate compounds were kept in a DMSO stock solution; the Mpro was in a buffer containing 20 mM HEPES, 120 mM NaCl, 0.4 mM EDTA, 20% glycerol, pH 7.0. DTT (4 mM) was added to the buffer prior to running the assay. Following incubation of 50 nM SARS-CoV-2 Mpro with 100 µM of the candidate compound for 10 min at 37 °C, the reaction was initiated by the addition of 10 µM of the FRET substrate to each well. The final DMSO concentration was <2%.

Series [1] deals with SARS-CoV-2 nsp14 (N7-methyltransferase activity) (Severe acute respiratory syndrome coronavirus 2, UniProt P0DTD1). The series is described as follows: Nsp14 RapidFire MS assay. It is filed as biochemical. Conditions: highest tested concentration of 100 µM.
The target of series [2] is SARS-CoV-2 replication–transcription complex (Severe acute respiratory syndrome coronavirus 2, UniProt P0DTD1). In words: SARS-CoV-2 polymerase assay. It counts as biochemical. Particulars: highest tested concentration of 100 µM.
The test system of series [3] is SARS-CoV-2 spike pseudotyped VSV. The series is described as follows: organism not typed. It is filed as cell-based. Conditions: Vero C1008, 24 h, read-out: SARS-CoV-2 pseudovirus neutralization EC50 (block of virus entry).
The test system of series [4] is MERS-CoV spike pseudotyped VSV. In words: organism not typed. It is filed as cell-based. Conditions: Vero C1008, 24 h, read-out: MERS pseudovirus neutralization EC50 (block of virus entry).
The target in a further series is cathepsin L (Homo sapiens, UniProt P07711). The series is described as follows: Cathepsin L inhibition. It counts as biochemical. Conditions: human protease involved in SARS-CoV-2 entry.
Chain of cathepsin L (P07711 114-333): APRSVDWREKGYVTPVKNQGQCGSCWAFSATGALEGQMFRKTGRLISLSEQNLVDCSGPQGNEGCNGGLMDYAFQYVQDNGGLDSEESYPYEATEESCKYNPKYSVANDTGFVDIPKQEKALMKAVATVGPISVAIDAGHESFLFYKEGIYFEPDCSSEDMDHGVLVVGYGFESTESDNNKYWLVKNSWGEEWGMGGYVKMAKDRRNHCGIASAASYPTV
In a further series the target is cathepsin B (Homo sapiens, UniProt P07858). In words: Cathepsin B inhibition. It counts as biochemical. Conditions: human protease involved in SARS-CoV-2 entry.
For series [5], the system named is SARS-CoV-2. Particulars: VeroE6 cells, CC50/EC50.
A short description of series [6]: in vitro. Particulars: African green monkey.
The nature of series [7]: in vitro. Conditions: human.
Series [8] has as its system SARS-CoV-2. The series is described as follows: microbe, parasite or virus in culture. Conditions: Severe acute respiratory syndrome coronavirus 2, 96 h, read-out: SARS-CoV-2 EC50.
The subject of a further series is Chikungunya virus. In words: Chikungunya virus antiviral assay in Vero A cells. Particulars: read-out: Chikungunya virus EC50.

The EC50 is the concentration giving half of the maximal effect.

Turning to `c1ccc(CCN2CCC(Oc3ccccc3-c3nc(-c4ccncc4)no3)C2)cc1` (centres unmarked) [Compound 1, 5-(2-((1-Phenethylpyrrolidin-3-yl)oxy)phenyl)-3-(pyridin-4-yl)-1,2,4-oxadiazole], the EC50 in the series on SARS-CoV-1 was 4.2 ± 0.2 µM; with MERS-CoV, 5 µM; in series [3], 1.25 µM; in series [4] it was 3.4 µM; with SARS-CoV-2 [8] it was 4.7 ± 3 µM; in the series with Chikungunya virus, over 100 µM. Also, the “inhibitory activity on SARS-CoV-2 Mpro” value against SARS-CoV-2 Mpro is “did not show any inhibitory activity”. For the same compound, the “inhibitory activity on SARS-CoV-2 nsp14 (N7-methyltransferase activity)” value in series [1] is “did not show any inhibitory activity”. In addition, in series [2], the “inhibitory activity on SARS-CoV-2 replication–transcription complex” value was “did not show any inhibitory activity”. Moreover, on cathepsin L, the “activity against cathepsin L” value was “inactive”. Also, the “activity against cathepsin B” value at cathepsin B was “inactive”. Moreover, in the series on SARS-CoV-2 [5], the “SI (CC50/EC50)” value was determined as 4.5. Further, the CC50 in “in vitro [6]” is 21 ± 11 µM; in the series “in vitro [7]” it was over 20 µM.

The values are drawn from PMC8840742 (Molecules, 2022).
